Experimental data: PMC7146544, “Dual Plasmepsin-Targeting Antimalarial Agents Disrupt Multiple Stages of the Malaria Parasite Life Cycle” (Cell Host & Microbe, 2020)

Tests used:
[1] = target: T1, P. falciparum aspartic protease, PMV (Plasmodium falciparum, UniProt Q8I6Z5); assay: Peptide cleavage (FRET) assay, PMV; format: biochemical; conditions: calculated from IC50 with Cheng-Prusoff equation
T1 construct: made in house

PMIX = assay: CETSA thermal stability assay, PMIX; format: binding, P. falciparum
Procedure: Lysate CETSA experiments were conducted essentially as described ([Dziekan et al., 2019]). Samples for CETSA studies were prepared using highly synchronous schizont stage P. falciparum 3D7-PMIX_HA and 3D7-PMX_HA parasites. Late-stage parasites (40–44 h post-invasion) were purified by Percoll density gradient and incubated with 1 μM compound 1 (C1) inhibitor (synthesized in-house) ([Hale et al., 2017]). After 2–4 h incubation, mature schizonts were washed once with PBS and pelleted infected red blood cells were lysed in 20 volumes of 0.15% (w/v) saponin in PBS and incubated on ice for 20 min. Parasites were washed 3 times in ice-cold PBS and the final pellet was resuspended in 10 volumes of lysis buffer (0.4% NP-40 (Roche) / PBS) and lysed by three freezing (dry ice/ethanol bath) - thawing cycles. The lysates were cleared by centrifugation at 16,000 g for 30 min and the supernatant containing soluble parasite proteins kept at −80°C until use. […] After blocking the membrane in 5% non-fat milk in TBST (M-TBST), PMIX_HA and PMX_HA were detected with anti-HA mAb 12CA5 (produced in-house) followed by HRP-conjugated a-mouse IgG Abs (Merck). Blots were developed with ECL Western Blotting Substrate (Thermo Fisher Scientific), and the images were generated and analyzed using ChemiDoc Gel Imaging System and Image Lab Software (Bio-Rad).

P. falciparum 3D7-PMX-HA = assay: EC50 in knock down parasite line 3D7-PMX-HA; format: cell-based, Plasmodium falciparum; conditions: presence vs absence of 2.5 mM GlcN
[2] = test system: P. falciparum 3D7-PMIX-HA; assay: EC50 in knock down parasite line 3D7-PMIX-HA; format: cell-based, Plasmodium falciparum; conditions: presence vs absence of 2.5 mM GlcN
P. berghei = assay: Peters' 4-day suppressive test for P. berghei infection in mice; format: in vivo, Plasmodium berghei; conditions: 4 days
Procedure: For results shown in Figure 1 A male Swiss mice were infected intraperitoneally (IP) with 1 × 10^6 P. berghei ANKA-parasitised red blood cells withdrawn from a previously infected donor mouse. Test compounds were prepared in a vehicle consisting of 10% DMSO/90% Solutol (5% Solutol® HS-15 in 0.9% saline). […] Peripheral blood samples were taken 24 h after administration of the last dose, and parasitemia was measured by microscopic analysis of Giemsa-stained blood smears. Parasitemia values were averages for 6 mice per group and are expressed as percent parasitemia. For results shown in Figure 4A ‘donor’ female Swiss mice were infected intraperitoneally (IP) with blood stage P. berghei parasites constitutively expressing GFP (P. berghei ANKA GFPcon 259cl2 ([Franke-Fayard et al., 2004]). Three days later, groups of 4 ‘acceptor’ Swiss mice were infected intravenously (IV) with 1 × 10^7 parasitised erythrocytes from the ‘donor’ mice. Two h post infection, experimental mice (4 per cohort) were left untreated (control mice) or treated orally on 4 consecutive days with test drugs formulated in 20% DMSO/60% PG/20% water (v/v/v) or chloroquine dissolved in water. […] Peripheral blood samples were taken 12 h after the last treatment, and parasitemia measured by flow cytometry (proportion of GFP-positive cells in 100,000 recorded events using FACSCalibur, BD) and microscopic analysis of Giemsa-stained blood smears. Parasitemia values were averages for 4 mice per group and are expressed as percent parasitemia.

[3] = test system: protein processing by PMIX and PMX in P. falciparum; assay: Processing inhibition assays (immunoblot of merozoites and supernatants); format: cell-based, Plasmodium falciparum; conditions: WM4 40 nM, WM382 2.5 nM; for AMA1 processing in merozoites / ASP processing / MTRAP processing / PMIX processing in parasites / RAP1 processing / RON3 processing / Rh1 processed fragments, release into the supernatant / SERA5 processing: E64 10 μM
Procedure: Processing inhibition assays were performed as previously described ([Boyle et al., 2010]). Synchronized late trophozoite/early schizont cultures to which protease inhibitors had already been added, were passed over LD magnetic columns (Miltenyi Biotech) to remove uninfected erythrocytes. The cysteine protease inhibitor E64 (Sigma) was used at 10 μM. […] A control dish without any protease inhibitor was also included. Parasites were eluted from columns with complete RPMI 1640 culture medium to which the appropriate inhibitor at the same concentration had been added. Eluted parasites were adjusted to 5x10^6 schizonts/mL and 150 ul added per well of a 96-well flat-bottomed culture dish. […] Parasites from each condition were spun at 10000 g/10 min so that merozoite and supernatant fractions could be separately collected. Proteins from both fractions were extracted with Reducing sample buffer and separated on 4%–12% or 3%–8% acrylamide gels (NuPAGE, Invitrogen).

[4] = test system: P. falciparum strains resistant to chloroquine, mefloquine, artemisinin, and atovaquone; assay: EC50 for P. falciparum strains resistant to known antimalarials; format: cell-based, Plasmodium falciparum; conditions: Figure S2
Procedure: After 72 h incubation at 37°C each well was fixed at room temperature for 30 min with 50 μL of 0.25% glutaraldehyde (ProSciTech) diluted in PBS. Following centrifugation at 1200 rpm for 1 min, supernatants were discarded and parasites were stained with 50 μL of 5X SYBR Green (Invitrogen) diluted in PBS. 50,000 cells were counted by flow cytometry using a Cell Lab Quanta SC – MPL Flow Cytometer (Beckman Coulter) ([Bacon et al., 2007]). Growth was expressed as a percentage of the parasitemia obtained using a vehicle control. All samples were tested in triplicate. EC50 values were determined using GraphPad Prism.

[5] = target: T2, recombinant PMX protein (rPMX) (Plasmodium falciparum, UniProt Q8IAS0); assay: biochemical
Target sequence in this assay (Q8IAS0 222-573): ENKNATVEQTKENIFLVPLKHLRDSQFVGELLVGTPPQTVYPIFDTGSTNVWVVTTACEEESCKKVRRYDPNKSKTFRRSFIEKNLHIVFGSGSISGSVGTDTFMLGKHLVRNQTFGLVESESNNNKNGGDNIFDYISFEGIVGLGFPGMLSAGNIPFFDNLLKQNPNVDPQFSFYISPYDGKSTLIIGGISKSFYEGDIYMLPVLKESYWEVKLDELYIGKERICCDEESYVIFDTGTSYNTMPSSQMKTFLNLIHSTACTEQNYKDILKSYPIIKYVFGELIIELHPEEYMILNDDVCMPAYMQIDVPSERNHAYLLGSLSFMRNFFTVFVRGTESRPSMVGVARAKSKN
Procedure: All wells were backfilled to 200 nL DMSO such that it remains constant across the assay plates (1% final). IC50 values were calculated by Dotmatics 5.3 and Spotfire 7.11.1 software using a nonlinear regression four-parameter fit analysis. The equation used is sigmoidal dose response (variable slope), Y = bottom + (top − bottom)/(1+10((logEC50 − X) × Hill Slope)). Compound Ki values were calculated from the IC50s using the Cheng-Prusoff equation, Ki = IC50/(1 + [S]/Km).
All compound potency assays were conducted in 20 μl total volume. For each assay, 10 μl of recombinant enzymes in respective assay buffers (Table) were dispensed into compound containing assay plates using a Multidrop Combi dispenser and allowed to incubate for 15 min. The reactions were started with a further 10 μl addition of FRET peptide substrates and reactions incubated at 37 °C for various times (Table).Samples were excited at 340 nm and fluorescence emission measured at 492 nm using an Envision fluorescence plate reader (Perkin-Elmer).

[6] = target: T2, recombinant PMX protein (rPMX); format: biochemical, P. falciparum; design: full-length enzyme with prodomain and catalytic domain (pro-cat); 8xHis (C); made in house; host or cells: Spodoptera frugiperda (sf21) insect cells, baculovirus, secreted; compound added to the expression culture; conditions: insect cell expression
Target sequence in this assay (Q8IAS0 27-573): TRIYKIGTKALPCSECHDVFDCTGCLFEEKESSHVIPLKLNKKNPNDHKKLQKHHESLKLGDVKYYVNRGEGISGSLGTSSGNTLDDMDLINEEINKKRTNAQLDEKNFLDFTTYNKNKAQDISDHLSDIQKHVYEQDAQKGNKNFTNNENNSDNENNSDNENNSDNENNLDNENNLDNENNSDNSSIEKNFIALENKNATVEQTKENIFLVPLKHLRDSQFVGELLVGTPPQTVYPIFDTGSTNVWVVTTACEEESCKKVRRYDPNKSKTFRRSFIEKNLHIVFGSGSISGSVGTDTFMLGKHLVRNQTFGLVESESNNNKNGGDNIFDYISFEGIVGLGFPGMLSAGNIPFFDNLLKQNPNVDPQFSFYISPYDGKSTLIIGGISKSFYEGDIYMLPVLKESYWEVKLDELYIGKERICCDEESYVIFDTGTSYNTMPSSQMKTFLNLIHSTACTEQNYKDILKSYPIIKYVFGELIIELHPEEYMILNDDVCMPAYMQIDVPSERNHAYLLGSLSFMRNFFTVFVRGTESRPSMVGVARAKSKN

T1 sequence (Q8I6Z5 whole entry): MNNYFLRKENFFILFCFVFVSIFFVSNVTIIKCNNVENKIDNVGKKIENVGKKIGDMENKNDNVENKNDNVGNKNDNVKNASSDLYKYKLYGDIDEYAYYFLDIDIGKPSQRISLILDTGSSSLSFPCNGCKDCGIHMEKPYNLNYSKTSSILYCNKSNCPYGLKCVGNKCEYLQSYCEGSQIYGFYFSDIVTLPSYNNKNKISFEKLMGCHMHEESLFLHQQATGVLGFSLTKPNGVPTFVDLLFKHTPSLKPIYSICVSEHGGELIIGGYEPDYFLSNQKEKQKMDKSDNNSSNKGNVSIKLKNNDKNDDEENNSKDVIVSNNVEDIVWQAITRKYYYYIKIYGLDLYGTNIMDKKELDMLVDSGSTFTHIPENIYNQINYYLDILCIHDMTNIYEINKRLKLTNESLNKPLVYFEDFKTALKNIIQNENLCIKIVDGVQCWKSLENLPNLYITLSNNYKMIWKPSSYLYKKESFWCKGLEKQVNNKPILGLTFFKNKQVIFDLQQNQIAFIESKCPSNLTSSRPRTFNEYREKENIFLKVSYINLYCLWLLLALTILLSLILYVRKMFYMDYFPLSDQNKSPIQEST

SMILES	Ki [1] [nM]	effect on thermal stability of PMIX (PMIX)	change of EC50 when PMX expression was decreased (P. falciparum 3D7-PMX-HA)	change of EC50 when PMIX expression was decreased [2]	AMA1 processing in merozoites [3]	ASP processing [3]	MTRAP processing [3]	PMIX processing in parasites [3]	RAP1 processing [3]	RON3 processing [3]	Rh1 processed fragments, release into the supernatant [3]	SERA5 processing [3]	EBA140 processing [3]	EBA175 processing [3]	EBA181 processing [3]	MSP1 cleavage at the known SUB1 sites [3]	MSP1 cleavage by SUB2 [3]	PMX processing in the parasite [3]	Rh5 processing [3]	Ripr processing [3]	other results
CCC1(CC)CC(=O)N([C@@H]2CCOc3ccc(C(=O)N[C@H]4CC(C)(C)Oc5ccccc54)cc32)C(=N)N1 [WM382]	13400 ± 620	significantly more thermostable	significantly decreased	significantly more sensitive	inhibited cleavage	cleavage was inhibited	inhibited processing, although not completely	inhibited processing	prevented production of both processed forms	did and the full-length protein, as well as an additional processed product (p55), were detected	the large fragment cleaved by ROM4 was not released into the supernatant	accumulation of unprocessed SERA5	inhibited by both compounds	inhibited a cleavage event	a predominant unprocessed form was evident	inhibited	higher activity	blocked cleavage of PMX	blocked processing of Rh5	inhibited	in vivo efficacy against P. berghei (P. berghei; oral, 20 mg/kg (mpk) b.i.d.): significantly greater in vivo efficacy than WM4 and WM5; SUB2 second processing event [3]: inhibited this second processing event; processing of Rh2a, Rh2b and Rh4 [3]: significantly inhibited processing; cross-resistance in drug resistant P. falciparum strains [4]: no cross-resistance; IC50 [5]: 0.06 nM; Ki [5]: 0.035 ± 0.008 nM; cleavage of rPMX into catalytic and pro-domain [6]: cleavage was inhibited
CC(NC(=O)c1cccc(C(c2ccccc2)N2C(=N)NC(C)(C(C)C)CC2=O)c1)c1ccccc1 (racemic) [WM4]	19800 ± 500	no effect on the thermal stability of PMIX	significantly decreased	no significant change	inhibited cleavage	ASP was processed	did not inhibit its processing	not inhibited	processing of RAP1 to p69 was inhibited	did not block processing	the large fragment cleaved by ROM4 was not released into the supernatant	accumulation of unprocessed SERA5	inhibited by both compounds	inhibited a cleavage event	a predominant unprocessed form was evident	inhibited	also inhibited	blocked cleavage of PMX	blocked processing of Rh5	inhibited	in vivo activity against P. berghei infection (P. berghei; intraperitoneal, 20 mpk q.d., Swiss mice): partial efficacy; SUB2 second processing event [3]: inhibited this second processing event; processing of Rh2a, Rh2b and Rh4 [3]: significantly inhibited processing; cross-resistance in drug resistant P. falciparum strains [4]: no cross-resistance; IC50 [5]: 0.81 nM; Ki [5]: 0.5 ± 0.2 nM; cleavage of rPMX into catalytic and pro-domain [6]: cleavage was inhibited
